According to patent US9695155B2, “Herbicidal substituted pyrimidinyloxy benzene compounds” (E. I. DU PONT DE NEMOURS AND COMPANY, priority 2013, dated 2017):

Experiments:
deadnettle = assay: Test D postemergence; format: in vivo, Lamium amplexicaule; settings: Lamium amplexicaule, post-emergence, scale 0 to 100 (0 no effect, 100 complete control), read-out: Plant response rating, Deadnettle
Source text: (§1) Seeds of plant species selected from bluegrass (annual bluegrass, Poa annua), blackgrass (Alopecurus myosuroides), canarygrass (littleseed canarygrass, Phalaris minor), chickweed (common chickweed, Stellaria media), galium (catchweed bedstraw, Galium aparine), bromegrass, downy (downy bromegrass, Bromus tectorum), field poppy (Papaver rhoeas), field violet (Viola arvensis), green foxtail (Setaria viridis), deadnettle (henbit deadnettle, Lamium amplexicaule), Italian ryegrass (Lolium multiflorum), kochia (Kochia scoparia), lambsquarters (Chenopodium album), oilseed rape (Brassica napus), pigweed (Amaranthus retroflexus), chamomile (scentless chamomile, Matricaria inodora), Russian thistle (Salsola kali), speedwell (bird's-eye speedwell, Veronica persica), spring barley (Hordeum vulgare), spring wheat (Triticum aestivum), wild buckwheat (Polygonum convolvulus), wild mustard (Sinapis arvensis), wild oat (Avena fatua), wild radish (Raphanus raphanistrum), windgrass (Apera spica-venti), winter barley (Hordeum vulgare), and winter wheat (Triticum aestivum) were planted into a silt loam soil and treated preemergence with test chemicals formulated in a non-phytotoxic solvent mixture which included a surfactant.
(§2) At the same time, these species were planted in pots containing Redi-Earth® planting medium (Scotts Company, 14111 Scottslawn Road, Marysville, Ohio 43041) comprising spaghnum peat moss, vermiculite, wetting agent and starter nutrients and treated with postemergence applications of the test chemicals formulated in the same manner. Plants ranged in height from 2 to 18 cm (1- to 4-leaf stage). Treated plants and controls were maintained in a controlled growth environment for 7 to 21 days after which time all species were compared to controls and visually evaluated. Plant response ratings, summarized in Table D, are based on a scale of 0 to 100 where 0 is no effect and 100 is complete control. A dash (-) response means no test result.

field poppy = assay: Test D postemergence; format: in vivo, Papaver rhoeas; settings: Papaver rhoeas, post-emergence, scale 0 to 100 (0 no effect, 100 complete control), read-out: Plant response rating, Field Poppy
Source text: as §1, §2

bluegrass = assay: Test D preemergence; format: in vivo, Poa annua; settings: Poa annua, pre-emergence, scale 0-100, read-out: Plant response rating, Bluegrass
Source text: as §1, §2

galium = assay: Test D preemergence; format: in vivo, Galium aparine; settings: Galium, pre-emergence, scale 0-100, read-out: Plant response rating, Galium
Source text: as §1, §2

Italian ryegrass = assay: Test D postemergence; format: in vivo, Lolium multiflorum; settings: Lolium multiflorum, post-emergence, scale 0 to 100 (0 no effect, 100 complete control), read-out: Plant response rating, Ryegrass, Italian
Source text: as §1, §2

field violet = assay: Test D postemergence; format: in vivo, Viola arvensis; settings: Viola arvensis, post-emergence, scale 0 to 100 (0 no effect, 100 complete control), read-out: Plant response rating, Field Violet
Source text: as §1, §2

oilseed rape = assay: Test D preemergence; format: in vivo, Brassica napus; settings: Brassica napus, pre-emergence, scale 0-100, read-out: Plant response rating, Oilseed Rape
Source text: as §1, §2

spring barley = assay: Test D postemergence; format: in vivo, Hordeum vulgare; settings: Hordeum vulgare, post-emergence, Postemergence, scale 0 to 100 (0 no effect, 100 complete control), read-out: Plant response rating, Barley, Spring
Source text: as §1, §2

winter barley = assay: Test D postemergence; format: in vivo, Hordeum vulgare; settings: Hordeum vulgare, post-emergence, Postemergence, scale 0 to 100 (0 no effect, 100 complete control), read-out: Plant response rating, Barley, Winter
Source text: as §1, §2

kochia = assay: Test D postemergence; format: in vivo, Kochia scoparia; settings: Bassia scoparia, post-emergence, scale 0 to 100 (0 no effect, 100 complete control), read-out: Plant response rating, Kochia
Source text: as §1, §2

N#Cc1cccc(Oc2ncc(Cl)cn2)c1-n1cc(Br)cn1 [Compound 52, 2-(4-bromo-1H-pyrazol-1-yl)-3-[(5-chloro-2-pyrimidinyl)oxy]benzonitrile]
pest or weed control at 31 g/ha (deadnettle; 31 g ai/ha): 65% | pest or weed control at 62 g/ha (deadnettle; 62 g ai/ha): 70% | pest or weed control at 125 g/ha (deadnettle; 125 g ai/ha): 70% | pest or weed control at 250 g/ha (deadnettle; 250 g ai/ha): 100% | pest or weed control at 31 g/ha (field poppy; 31 g ai/ha): 60% | pest or weed control at 62 g/ha (field poppy; 62 g ai/ha): 75% | pest or weed control at 125 g/ha (field poppy; 125 g ai/ha): 80% | pest or weed control at 250 g/ha (field poppy; 250 g ai/ha): 100% | pest or weed control at 31 g/ha (bluegrass; 31 g ai/ha): 0% | pest or weed control at 62 g/ha (bluegrass; 62 g ai/ha): 0% | pest or weed control at 125 g/ha (bluegrass; 125 g ai/ha): 10% | pest or weed control at 250 g/ha (bluegrass; 250 g ai/ha): 60% | pest or weed control at 31 g/ha (galium; 31 g ai/ha): 10% | pest or weed control at 62 g/ha (galium; 62 g ai/ha): 20% | pest or weed control at 125 g/ha (galium; 125 g ai/ha): 75% | pest or weed control at 250 g/ha (galium; 250 g ai/ha): 70% | pest or weed control at 31 g/ha (Italian ryegrass; 31 g ai/ha): 5% | pest or weed control at 62 g/ha (Italian ryegrass; 62 g ai/ha): 5% | pest or weed control at 125 g/ha (Italian ryegrass; 125 g ai/ha): 20% | pest or weed control at 250 g/ha (Italian ryegrass; 250 g ai/ha): 35% | pest or weed control at 31 g/ha (field violet; 31 g ai/ha): 100% | pest or weed control at 62 g/ha (field violet; 62 g ai/ha): 100% | pest or weed control at 125 g/ha (field violet; 125 g ai/ha): 100% | pest or weed control at 250 g/ha (field violet; 250 g ai/ha): 100% | plant injury at 31 g/ha (oilseed rape; 31 g ai/ha): 0% | plant injury at 62 g/ha (oilseed rape; 62 g ai/ha): 80% | plant injury at 125 g/ha (oilseed rape; 125 g ai/ha): 100% | plant injury at 250 g/ha (oilseed rape; 250 g ai/ha): 100% | plant injury at 31 g/ha (spring barley; 31 g ai/ha): 10% | plant injury at 62 g/ha (spring barley; 62 g ai/ha): 15% | plant injury at 125 g/ha (spring barley; 125 g ai/ha): 15% | plant injury at 250 g/ha (spring barley; 250 g ai/ha): 20% | plant injury at 31 g/ha (winter barley; 31 g ai/ha): 10% | plant injury at 62 g/ha (winter barley; 62 g ai/ha): 10% | plant injury at 125 g/ha (winter barley; 125 g ai/ha): 15% | plant injury at 250 g/ha (winter barley; 250 g ai/ha): 20% | pest or weed control at 31 g/ha (kochia; 31 g ai/ha): 80% | pest or weed control at 62 g/ha (kochia; 62 g ai/ha): 90% | pest or weed control at 125 g/ha (kochia; 125 g ai/ha): 90% | pest or weed control at 250 g/ha (kochia; 250 g ai/ha): 90%
